Converted amounts (≈) assume the structure as drawn.
Tests used:
[1] = Aerosol particle size distribution (MMAD) in the dog study; assay type: physicochemical; conditions: aerosol of the combined formulation, analytical methods
[2] = tested on: Pseudomonas; conditions: cited from earlier work
[3] = tested on: Pseudomonas aeruginosa; conditions: cited from earlier work
[4] = tested on: Stenotrophomonas maltophilia; conditions: cited from earlier work
[5] = parameters: species or system beagle dogs; conditions: dog, in vivo
Source text: Toxicokinetic parameters were estimated using WinNonlin pharmacokinetic software version 5.2.1 (Pharsight Corp.). A non-compartmental approach consistent with the extravascular route of administration was used for parameter estimation. All parameters were generated from individual amikacin and fosfomycin concentrations in plasma from Days 1 and 7.

[6] = tested on: MRSA; conditions: data from the 1980's; cited from earlier work
[7] = tested on: pseudomonas isolates; conditions: most pseudomonas isolates; cited from earlier work

SMILES | particle size distribution (MMAD) [1] [μm] | MIC90 [2] [µg/mL] | factor of increase of in vitro activity of amikacin by fosfomycin [3] | MIC90 [4] [µg/mL] | accumulation following repeat dosing [5] | MIC90 [6] [µg/mL] | MIC90 [7] [µg/mL]
NCC[C@H](O)C(=O)N[C@@H]1C[C@H](N)[C@@H](O[C@H]2O[C@H](CN)[C@@H](O)[C@H](O)[C@H]2O)[C@H](O)[C@H]1O[C@H]1O[C@H](CO)[C@@H](O)[C@H](N)[C@H]1O [amikacin] | 2.80 | 32 (≈ 54.6 µM) | 64 | > 64 | no clear indication of accumulation |  | 
C[C@@H]1O[C@@H]1P(=O)(O)O [fosfomycin] |  |  |  |  | no clear indication of accumulation | 32 (≈ 232 µM) | 
NC[C@H]1O[C@H](O[C@H]2[C@H](O)[C@@H](O[C@H]3O[C@H](CO)[C@@H](O)[C@H](N)[C@H]3O)[C@H](N)C[C@@H]2N)[C@H](N)C[C@@H]1O [tobramycin] |  |  |  |  |  |  | 64 (≈ 137 µM)
